Data as given in patent publication US20220304978A1, “INHIBITING MESANGIAL CELL ACTIVATION” (Chinook Therapeutics, Inc., priority 2019, published 2022).

System: kidney tissue of g-ddY mice
Test: RNA-seq differential gene expression in kidney tissue of g-ddY mice
Type: in vivo, mouse
Experimental: RNA isolation and sequencing libraries were generated using standard protocols. Sequencing was performed using an Illumina NextSeq500 using manufacturer's instructions with a read length of 75 bp and a read depth of 30 million. Raw data was assembled to FASTQ files. Following QC analysis, high quality sequencing reads (e.g., reads with a Phred quality score >36) were aligned to the mouse reference genome (GRCm38-mm10) using the default parameters of the align algorithm and transcript count tables of each library was generated using the default parameters of the featureCounts algorithm of the RSubread package (Liao Y, Smyth GK, Shi W, 2019). High quality sequencing reads mapped to 27,129 genes. Following additional QC of low count filtering (i.e. transcripts <10 counts across all samples), 16,207 genes were identified and used for further analysis. The remaining sequencing read counts of the included 16,207 genes were normalized to library size, log-transformed, and were quantified as counts per million (CPM). Select RNA-seq counts were validated using qPCR. Sequencing read counts (CPM) were used for identification of differential gene expression between specified populations using the quasi-likelihood methodology of the edgeR package. […] MA plots were generated using edgeR. Heatmaps and other plots were generated using the gplots and ggplot2 package.

[1] = 10 mg/kg/day vs control, IL6 signaling
[2] = 10 mg/kg/day vs control, NF-kB signaling
[3] = 10 mg/kg/day vs control, PDGF signaling
[4] = 10 mg/kg/day vs control, cell proliferation signaling
[5] = 10 mg/kg/day vs control, inflammatory response signaling
[6] = 10 mg/kg/day vs control, mesangial cell signature
[7] = 20 mg/kg/day vs control, IL6 signaling
[8] = 20 mg/kg/day vs control, NF-kB signaling
[9] = 20 mg/kg/day vs control, PDGF signaling
[10] = 20 mg/kg/day vs control, cell proliferation signaling

## CCCCN(CCCC)C(=O)CN1C[C@H](c2ccc3c(c2)OCO3)[C@@H](C(=O)O)[C@@H]1c1ccc(OC)cc1 [atrasentan, (2R,3R,4S)-4-(1,3-benzodioxol-5-yl)-1-[2-(dibutylamino)-2-oxoethyl]-2-(4-methoxyphenyl)pyrrolidine-3-carboxylic acid]
[1]
  Cntfr logFC: −0.8669
  Csf1 logFC: −0.8332
  Il1b logFC: −1.684
  Il1r1 logFC: −0.2988
  Il2ra logFC: −0.8599
  Map3k8 logFC: −0.3558
[2]
  Ackr3 logFC: 0.2851
  Atf3 logFC: −1.514
  Btg1 logFC: −0.3745
  Btg2 logFC: −0.424
  Ccl20 logFC: −1.273
  Ccnd1 logFC: 0.453
  Cdkn1a logFC: 0.5583
  Csf1 logFC: −0.8332
  Cxcl2 logFC: −1.19
  Dnajb4 logFC: −0.3683
  Edn1 logFC: −1.006
  Efna1 logFC: 0.6938
  Ehd1 logFC: 0.2563
  F3 logFC: −0.4963
  Fosl2 logFC: −0.8662
  Id2 logFC: 0.1663
  Ifit2 logFC: −0.471
  Il1b logFC: −1.684
  Jag1 logFC: −0.4199
  Klf2 logFC: −0.4894
  Klf4 logFC: −0.5493
  Map3k8 logFC: −0.3558
  Nfat5 logFC: −0.3118
  Nfkb1 logFC: −0.3424
  Nfkbia logFC: −0.5525
  Nr4a2 logFC: −1.3802
  Nr4a3 logFC: −1.143
  Per1 logFC: −0.4162
  Pfkfb3 logFC: −1.166
  Pnrcl logFC: 0.2635
  Rel logFC: −0.7218
  Rhob logFC: −0.533
  Serpine1 logFC: −0.7169
  Snn logFC: 0.3517
  Spsb1 logFC: −0.6157
  Tnfaip8 logFC: 0.273
  Traf1 logFC: −0.5182
  Trib1 logFC: −0.6481
  Zbtb10 logFC: −0.2335
[3]
  Hras logFC: 0.1887
  Map3k1 logFC: −0.3825
  Nfkb1 logFC: −0.3424
  Nfkbia logFC: −0.5525
  Pdgfb logFC: −0.3414
  Pdgfra logFC: −0.51
  Pik3cg logFC: −0.5882
  Pik3r1 logFC: −0.4253
  Pla2g4a logFC: −0.6999
  Tiam1 logFC: −0.7456
[4]
  Arid4a logFC: −0.2777
  Atrx logFC: −0.2463
  Bcar1 logFC: 0.3379
  Ccdc88a logFC: −0.5602
  Ccnd1 logFC: 0.453
  Cep192 logFC: −0.4211
  Cntrl logFC: −0.289
  Dmd logFC: −0.3335
  Epb41l2 logFC: −0.4376
  Fgd6 logFC: −0.2369
  Flna logFC: −0.4162
  Itsn1 logFC: −0.2276
  Kmt5a logFC: 0.2601
  Meis1 logFC: −0.2507
  Myh9 logFC: −0.2093
  Myh10 logFC: −0.3068
  Myo1e logFC: −0.2349
  Nin logFC: −0.3393
  Ophn1 logFC: −0.4999
  Rapgef5 logFC: −0.2732
  Rhot2 logFC: 0.4727
  Slc7a1 logFC: −0.396
  Slc12a2 logFC: −0.2507
  Slc38a1 logFC: −0.4971
  Smc3 logFC: −0.2304
  Sorbs2 logFC: −0.3958
  Tiam1 logFC: −0.7456
  Tuba4a logFC: 0.2738
  Vcl logFC: −0.2001
  Ythdc1 logFC: −0.1936
[5]
  Btg2 logFC: −0.424
  Ccl20 logFC: −1.273
  Cdkn1a logFC: 0.5583
  Chst2 logFC: −0.5212
  Csf1 logFC: −0.8332
  Edn1 logFC: −1.006
  Eif2ak2 logFC: −0.272
  F3 logFC: −0.4963
  Gabbr1 logFC: −0.02473
  Hpn logFC: 0.4007
  Il1b logFC: −1.684
  Il1r1 logFC: −0.2988
  Ly6e logFC: 0.1666
  Nfkb1 logFC: −0.3424
  Nfkbia logFC: −0.5525
  Rnf144b logFC: −0.7108
  Ros1 logFC: −2.078
  Serpine1 logFC: −0.7169
  Slc4a4 logFC: 0.5123
  Slc7a1 logFC: −0.396
  Slc7a2 logFC: −0.8315
  Slc11a2 logFC: 0.3192
[6]
  Ahnak logFC: −0.5756
  Akap12 logFC: −0.2687
  Akt3 logFC: −0.3863
  Aldob logFC: 0.4194
  Ankrd12 logFC: −0.2824
  C7 logFC: −0.7767
  Cald1 logFC: −0.3719
  Cblb logFC: −0.082
  Ebf1 logFC: −0.3301
  Epb41l2 logFC: −0.4375
  Ets1 logFC: −0.2198
  Fchsd2 logFC: −0.2564
  Frmd4a logFC: −0.2838
  Gata3 logFC: −0.4822
  Gpx3 logFC: 0.6802
  Igfbp7 logFC: 0.2052
  Lama2 logFC: −0.2955
  Maml2 logFC: −0.2318
  Meis1 logFC: −0.2507
  Myh9 logFC: −0.2094
  Myo1e logFC: −0.2349
  Nbea logFC: −0.2819
  Nfkbia logFC: −0.5525
  Piezo2 logFC: −0.4078
  Postn logFC: −1.385
  Pparg logFC: −0.6129
  Ppp1r12a logFC: −0.1995
  Prkg1 logFC: −0.2187
  Psd3 logFC: −0.3544
  Ptprm logFC: −0.2614
  Rapgef5 logFC: −0.2732
  Raph1 logFC: −0.2965
  Rbms3 logFC: −0.5749
  Robo1 logFC: −0.4803
  Stard13 logFC: −0.7224
  Tacc1 logFC: −0.2449
  Tcf4 logFC: −0.2176
  Tjp1 logFC: −0.2489
  Tns3 logFC: −0.2638
  Unc5c logFC: 0.5618
  Utrn logFC: −0.49
[7]
  Cntfr logFC: −0.8574
  Csf1 logFC: −1.089
  Il1r1 logFC: −0.8263
  Il2ra logFC: −0.959
  Map3k8 logFC: −0.8222
[8]
  Ackr3 logFC: 0.4917
  Atf3 logFC: −2.107
  Btg1 logFC: −0.5187
  Btg2 logFC: −0.6974
  Ccn1 logFC: −1.087
  Ccnd1 logFC: 0.644
  Cdkn1a logFC: 0.2546
  Csf1 logFC: −1.089
  Cxcl2 logFC: −2.5772
  Dnajb4 logFC: −0.3548
  Edn1 logFC: −1.328
  Efna1 logFC: 0.286
  Ehd1 logFC: 0.2715
  F3 logFC: −0.5235
  Fosl2 logFC: −1.122
  Gem logFC: −1.237
  Id2 logFC: 0.2228
  Ifit2 logFC: −0.6323
  Jag1 logFC: −0.3939
  Klf2 logFC: −0.4816
  Klf4 logFC: −0.904
  Map3k8 logFC: −0.8222
  Nfat5 logFC: −0.323
  Nfkb1 logFC: −0.616
  Nfkbia logFC: −0.7041
  Nr4a1 logFC: −1.621
  Nr4a2 logFC: −1.111
  Nr4a3 logFC: −1.113
  Per1 logFC: −0.1216
  Pfkfb3 logFC: −1.125
  Pnrcl logFC: 0.04156
  Rel logFC: −1.0782
  Rhob logFC: −0.5419
  Serpine1 logFC: −1.501
  Snn logFC: 0.4753
  Spsb1 logFC: −0.654
  Tnfaip8 logFC: 0.4
  Traf1 logFC: −1.485
  Trib1 logFC: −0.7668
  Zbtb10 logFC: −0.2586
[9]
  Hras logFC: 0.06802
  Map3k1 logFC: −0.7203
  Nfkb1 logFC: −0.616
  Nfkbia logFC: −0.7041
  Pdgfb logFC: −0.8375
  Pdgfra logFC: −0.658
  Pik3cg logFC: −1.096
  Pik3r1 logFC: −0.4284
  Pla2g4a logFC: −0.8381
  Tiam1 logFC: −0.9494
[10]
  Arid4a logFC: −0.196
  Atrx logFC: −0.2188
  Bcar1 logFC: 0.346
  Ccdc88a logFC: −0.6374
  Ccnd1 logFC: 0.644
  Cep192 logFC: −0.4173
  Cntrl logFC: −0.3963
  Dmd logFC: −0.3485
  Epb41l2 logFC: −0.6149
  Fgd6 logFC: −0.3419
  Flna logFC: −0.7842
  Itsn1 logFC: −0.2752
  Kmt5a logFC: 0.2873
  Meis1 logFC: −0.3593
  Myh9 logFC: −0.4543
  Myh10 logFC: −0.1801
  Myo1e logFC: −0.292
  Nin logFC: −0.4236
  Ophn1 logFC: −0.7587
